Broadly, the koff is the rate constant with which the complex falls apart. In general, kon refers to a measure of how fast the partners come together. Usually half-life stands for how long it takes for the measured level to halve. Low readings indicate rapid decline, high ones slow decline. The solubility is the dissolved amount per volume that the medium holds. One may read the Ki as a dissociation constant, usually derived from enzyme kinetics or from competition with a known ligand. In general, inhibition refers to the relative decrease from the control value, in per cent.

Values after ≈ are worked out from the molar mass of the structure shown. Counter-ions that a name gives are not always drawn. Like-named read-outs stand apart in the source and are kept apart here.

The target in data set [1] is T1, human MMP-2 (Homo sapiens, UniProt P08253).
T1 sequence (P08253 110-660): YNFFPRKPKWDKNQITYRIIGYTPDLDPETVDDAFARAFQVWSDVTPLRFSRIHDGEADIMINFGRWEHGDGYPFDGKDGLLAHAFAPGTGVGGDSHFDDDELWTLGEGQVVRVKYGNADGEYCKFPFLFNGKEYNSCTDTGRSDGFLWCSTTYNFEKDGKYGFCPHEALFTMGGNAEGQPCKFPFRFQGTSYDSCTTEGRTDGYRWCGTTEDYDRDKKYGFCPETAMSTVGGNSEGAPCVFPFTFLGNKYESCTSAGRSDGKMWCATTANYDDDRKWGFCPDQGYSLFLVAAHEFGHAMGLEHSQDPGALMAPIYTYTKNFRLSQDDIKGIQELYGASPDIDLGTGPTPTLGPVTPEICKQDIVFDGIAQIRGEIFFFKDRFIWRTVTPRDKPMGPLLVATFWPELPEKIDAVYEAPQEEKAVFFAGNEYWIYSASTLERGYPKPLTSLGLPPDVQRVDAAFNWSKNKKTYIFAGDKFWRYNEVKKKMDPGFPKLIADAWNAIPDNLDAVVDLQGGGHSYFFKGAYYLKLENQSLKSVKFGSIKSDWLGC
The experiment in a line: biochemical. To be noted: for koff: read-out: koff, MMP-2; for kon: read-out: kon, MMP-2.

A short description of data set [2]: Half-life in human blood at 37° C. To be noted: for half-life: human, blood.
A short description of data set [3]: Half-life in human plasma at 37° C. To be noted: for half-life: human, plasma.
For data set [4], the target named is T2, human MMP-9 (Homo sapiens, UniProt P14780). The experiment in a line: biochemical. To be noted: for koff: read-out: koff, MMP-9; for kon: read-out: kon, MMP-9.
Data set [5] concerns Ames II mixed strains and strain TA98. The data set can be described thus: Ames mutagenicity assay (reverse mutations). To be noted: with and without rat liver S9 metabolic activation; six concentrations up to 1 mg/mL.
Data set [6] in a line: Half-life in mouse liver microsomes.
Data set [7] in a line: Half-life in rat liver microsomes.
Data set [8] can be described thus: Half-life in human liver microsomes.
Data set [9] addresses T2, human MMP-9. To be noted: read-out: Ki for human MMP-9; background, earlier reports; cited from earlier work.
In data set [10] the target is T1, human MMP-2. To be noted: read-out: Ki for human MMP-2; background, earlier reports; cited from earlier work.
Data set [11] deals with T3, MMP-14 (Homo sapiens, UniProt P50281). The experiment in a line: biochemical.
For data set [12], the target named is T1, human MMP-2. To be noted: read-out: Ki, MMP-2.
Another data set addresses T4, MMP-7 (Homo sapiens, UniProt P09237).
T4 sequence (P09237 95-267): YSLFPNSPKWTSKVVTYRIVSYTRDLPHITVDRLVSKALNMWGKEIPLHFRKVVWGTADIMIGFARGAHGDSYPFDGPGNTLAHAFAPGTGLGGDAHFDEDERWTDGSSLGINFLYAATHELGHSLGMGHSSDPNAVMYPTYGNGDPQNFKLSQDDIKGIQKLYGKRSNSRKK
To be noted: read-out: Ki, MMP-7.

Another data set concerns the target MMP-3 (Homo sapiens, UniProt P08254). The data set can be described thus: biochemical. To be noted: read-out: inhibition of MMP-3.
The target in another data set is T5, MMP-1 (Homo sapiens, UniProt P03956).
T5 sequence (P03956 100-469): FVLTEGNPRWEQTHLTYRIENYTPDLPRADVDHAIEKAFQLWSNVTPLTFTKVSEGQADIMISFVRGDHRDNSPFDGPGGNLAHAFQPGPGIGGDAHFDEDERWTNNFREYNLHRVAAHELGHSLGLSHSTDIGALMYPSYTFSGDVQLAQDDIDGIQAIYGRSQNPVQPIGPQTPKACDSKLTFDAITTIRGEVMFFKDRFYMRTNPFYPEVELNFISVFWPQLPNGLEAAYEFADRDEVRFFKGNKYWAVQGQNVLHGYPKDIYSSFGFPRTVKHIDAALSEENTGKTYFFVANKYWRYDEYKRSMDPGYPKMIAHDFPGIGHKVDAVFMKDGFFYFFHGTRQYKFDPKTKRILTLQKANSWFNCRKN
The experiment in a line: biochemical. To be noted: read-out: inhibition of MMP-1.

Data set [13] deals with T2, human MMP-9. To be noted: read-out: Ki, MMP-9.
The target of data set [14] is T3, MMP-14. To be noted: read-out: Ki, MMP-14.
Another data set deals with other MMPs. To be noted: background, earlier reports; cited from earlier work.
The conditions of data set [15]: rat; cited from earlier work.
The conditions of data set [16]: mice; cited from earlier work.
For data set [17] the following is noted: cited from earlier work.

T2 sequence (P14780 107-707 limits assumed): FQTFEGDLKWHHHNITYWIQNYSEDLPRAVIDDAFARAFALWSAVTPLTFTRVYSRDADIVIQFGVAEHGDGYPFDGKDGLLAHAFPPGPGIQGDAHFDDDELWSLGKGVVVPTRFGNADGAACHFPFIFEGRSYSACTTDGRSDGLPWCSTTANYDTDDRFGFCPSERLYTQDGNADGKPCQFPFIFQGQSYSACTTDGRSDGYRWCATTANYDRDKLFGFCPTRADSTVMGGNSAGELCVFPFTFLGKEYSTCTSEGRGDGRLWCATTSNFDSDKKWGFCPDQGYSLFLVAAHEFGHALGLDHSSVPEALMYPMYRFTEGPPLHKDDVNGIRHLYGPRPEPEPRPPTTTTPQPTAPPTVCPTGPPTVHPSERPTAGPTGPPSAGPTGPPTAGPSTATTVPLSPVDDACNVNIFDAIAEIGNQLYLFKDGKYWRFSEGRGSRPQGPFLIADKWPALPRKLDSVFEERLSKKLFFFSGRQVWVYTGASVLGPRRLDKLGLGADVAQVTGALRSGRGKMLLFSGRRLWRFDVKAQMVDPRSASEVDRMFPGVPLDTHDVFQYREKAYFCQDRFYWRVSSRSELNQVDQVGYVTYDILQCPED
MMP-3, sequence (P08254 100-477): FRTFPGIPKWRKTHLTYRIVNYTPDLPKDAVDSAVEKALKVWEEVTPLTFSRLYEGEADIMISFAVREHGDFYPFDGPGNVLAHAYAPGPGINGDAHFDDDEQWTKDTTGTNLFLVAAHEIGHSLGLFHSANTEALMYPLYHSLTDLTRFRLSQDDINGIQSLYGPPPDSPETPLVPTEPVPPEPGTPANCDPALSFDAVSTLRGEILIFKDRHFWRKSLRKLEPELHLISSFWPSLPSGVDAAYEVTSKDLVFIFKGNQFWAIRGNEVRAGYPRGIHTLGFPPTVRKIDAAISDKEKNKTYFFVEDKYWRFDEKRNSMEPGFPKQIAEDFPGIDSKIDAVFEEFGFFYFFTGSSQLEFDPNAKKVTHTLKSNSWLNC

As for `NCCCCC(N)C(=O)Nc1ccc(Oc2ccc(S(=O)(=O)CC3CS3)cc2)cc1` (stereo not shown) [Compound 11b], the koff at human MMP-2 [1] turned out to be 0.00021 ± 9e-05 s⁻¹; on human MMP-9 [4], 0.00042 ± 7e-05 s⁻¹. Besides, the kon on human MMP-2 [1] came to 3400 ± 100 M⁻¹ s⁻¹; on human MMP-9 [4] it was 270 ± 40 M⁻¹ s⁻¹. Besides, the half-life came to 15.3 ± 1.9 min in data set [2] and 25.1 ± 5.2 min in data set [3]. For the same molecule, the solubility in the data set “Water solubility” (water, Water Solubility) is greater than 10000 µg/mL.
Turning to `N=C(N)NCCCC(N)C(=O)NC(CCCNC(=N)N)C(=O)Nc1ccc(Oc2ccc(S(=O)(=O)CC3CS3)cc2)cc1` (stereo not shown) [Compound 11e], the half-life was 5.9 ± 0.6 min in [2] and 11.8 ± 0.5 min in data set [3]. In “Water solubility” (water, Water Solubility), this molecule showed a solubility greater than 10000 µg/mL.
`N=C(N)NCCCC(N)C(=O)Nc1ccc(Oc2ccc(S(=O)(=O)CC3CS3)cc2)cc1` (stereo not shown) [Compound 11d]: in data set [5], the “mutagenic potential (Ames mutagenicity assay)” value is reported as “negative”. Also, the half-life in [6] is greater than 60 min; in data set [2], 25.4 ± 0.1 min; in data set [3] it was 29.5 ± 0.7 min; in data set [7], 59.3 ± 4.5 min; in data set [8] it was greater than 60 min. This molecule also yielded a solubility in “Water solubility” (water, Water Solubility) greater than 10000 µg/mL.
Molecule `Cc1oc(=O)oc1COC(=O)Nc1ccc(Oc2ccc(S(=O)(=O)CC3CS3)cc2)cc1` (stereo not shown) [Compound 14] had a Ki at human MMP-2 [1] of 2.4 ± 0.6 µM. For the same molecule, the solubility in “Water solubility” (Water Solubility, in 100% water, solubility calculated using ε of MIK-G6 (p-N-acetyl SB-3CT)) was 1.01 µg/mL (≈ 0.00212 mM). The same molecule displayed a half-life in data set [3] of 1.6 ± 0.4 min. In addition, the inhibition at 80 µM at human MMP-9 [4] (read-out: inhibition of MMP-9) stood at 37%.
`O=S(=O)(CC1CS1)c1ccc(Oc2ccc(O)cc2)cc1` (stereo not shown) [p-hydroxylated metabolite]: the inhibitory constant (Ki) is 0.16 ± 0.08 µM at human MMP-9 [9] and 0.006 ± 0.003 µM at human MMP-2 [10].
Take `NC(CCC(=O)O)C(=O)Nc1ccc(Oc2ccc(S(=O)(=O)CC3CS3)cc2)cc1` (stereo not shown) [Compound 11c]: on human MMP-2 [1], the off-rate (koff) came to 0.00018 ± 0.00016 s⁻¹ and the kon was determined as 2500 ± 100 M⁻¹ s⁻¹. In data set [2], this molecule gave a half-life of 27.9 ± 3.8 min. The molecule further yielded a solubility in the data set “Water solubility” (water, Water Solubility) greater than 10000 µg/mL. The half-life in [3] was 32.8 ± 3.6 min. For the same molecule, at human MMP-9 [4], the Ki was 5.4 ± 0.3 µM, the koff stood at 0.0012 ± 7e-05 s⁻¹ and the kon is 2300 ± 100 M⁻¹ s⁻¹.
In the case of `Nc1ccc(Oc2ccc(S(=O)(=O)CC3CS3)cc2)cc1O` (stereo not shown) [Compound 22, 2-Amino-5-(4-((thiiran-2-ylmethyl)sulfonyl)phenoxy)phenol], the koff on MMP-14 [11] (read-out: koff, MMP-14) came out at 0.000702 ± 0.000161 s⁻¹; on human MMP-2 [1], 0.00014 ± 7e-05 s⁻¹; on human MMP-9 [4], 0.00053 ± 0.0001 s⁻¹. Besides, the kon was found to be 2690 ± 270 M⁻¹ s⁻¹ on MMP-14 [11] (read-out: kon, MMP-14); 1700 ± 100 M⁻¹ s⁻¹ on human MMP-2 [1]; 1070 ± 120 M⁻¹ s⁻¹ on human MMP-9 [4]. Further, the Ki on human MMP-2 [12] is 0.078 ± 0.043 µM; at MMP-7 it was 116 ± 13 µM; at human MMP-9 [13], 0.49 ± 0.11 µM; on MMP-14 [14], 0.26 ± 0.07 µM. The inhibition at 300 µM at MMP-3 worked out at 54%; at MMP-1, 11%.
Turning to `NCC(=O)Nc1ccc(Oc2ccc(S(=O)(=O)CC3CS3)cc2)cc1` (stereo not shown) [Compound 11a], the koff was 0.00082 ± 9e-05 s⁻¹ on human MMP-2 [1] and 0.00065 ± 6e-05 s⁻¹ at human MMP-9 [4]. In addition, the kon on human MMP-2 [1] worked out at 1900 ± 600 M⁻¹ s⁻¹; at human MMP-9 [4], 210 ± 40 M⁻¹ s⁻¹. For the same molecule, the “Half-life in human blood at 37° C.” value in data set [2] (human blood, 37° C.) was 27.1 ± 2.5 min. The Ki at human MMP-2 [12] worked out at 0.44 ± 0.05 µM; at human MMP-9 [13], 3.1 ± 0.3 µM. In addition, the “Half-life in human plasma at 37° C.” value in data set [3] (human plasma, 37° C.) is listed as 32.4 ± 2.7 min.
As to `O=S(=O)(CC1CS1)c1ccc(Oc2ccccc2)cc1` (stereo not shown) [SB-3CT], at other MMPs, the “Ki values for other MMPs” value is recorded as “in the μM range at best”. In data set [15], the “treatment in model of subarachnoid hemorrhage” value is reported as “effective”. The “treatment of viral-induced vascular leakage” value in [16] was “effective”. Also, in the data set “Water solubility” (water, aqueous solubility), the solubility is roughly 2.45 µg/mL (≈ 0.008 mM). Further, in data set [17] (administration at 6 hours after ischemia), the histological damage entry is recorded as “potently blocked”. Further, in data set [17] (mouse transient ischemia), the infarct volume is recorded as 30 % of control and the neurobehavioral scores entry is given as “significantly improved”.
Take `Nc1ccc(Oc2ccc(S(=O)(=O)CC3CS3)cc2)cc1` (stereo not shown) [Compound 6, 4-[4-((Thiiran-2-yl)methylsulfonyl)phenoxy]benzamine.HCl salt]: the “Half-life in liver microsomes, Mouse” value in [6] worked out at 27.3 ± 2.1 min. For the same molecule, the “Half-life in liver microsomes, Rat” value in data set [7] came to 23.4 ± 0.7 min. In addition, in data set [8], the “Half-life in liver microsomes, Human” value was greater than 60 min.
